# Patent US20110294789A1, “COMPOUNDS FOR RHO KINASE INHIBITION AND FOR IMPROVING LEARNING AND MEMORY” (AMNESTIX, INC., priority 2008, published 2011)
# Entries after “also recorded” stand apart in the source; their conditions may differ.
# How the values were obtained:
# over 400 kinases = assay: KinomeScan competition binding assay, kinase specificity; conditions: 10 μM; competition of more than 50% regarded as inhibitory; FIG. 13A
# Description: (§1) Based on a competition binding assay that quantitatively measures the ability of a test compound to compete with an immobilized, active-site directed ligand it is possible to scan the competitive effect of the test compound for a broad variety of kinases in parallel (KinomeScan, Ambit, San Diego, Calif., USA; Fabian et al., Nat. Biotechnol. 2005, 23, 329). Based on this analysis it is possible to assess the inhibitory specificity of a test compound. […] As result of the assay one obtains the percentage of competition of the active-site directed ligand for each of the over 400 kinases of the test due to the incubation with the test compounds. Competitions of more than 50% were regarded as significant indicating for inhibition of the particular kinase.
# [1] = system: Hippocampal primary neurons; assay: Neurite outgrowth analysis; type: cell-based, rats; conditions: 1.5 μM or 15 μM, 2 days in culture; versus negative control and Fasudil; FIG. 15
# Protocol: The effect of test compounds on neurite outgrowth can be assessed in vitro. Hippocampal primary neurons prepared from embryonic (E18) rats were cultured in Neurobasal medium (Invitrogen) enriched with B27, bFGF, Penicillin/Streptomycin, L-Glutamin. For the neurite outgrowth assay the medium is mixed with conditioned medium in a 1:1 ratio. The neurites were immunocytochemically stained using an antibody against the axonal marker neurofilament-light. Photographs were acquired at 40-fold magnification (Olympus IX81) and assembled to allow analysis of whole individual neurons. The test compounds 1-(8-methyl-5 isoquinoline-sulfonyl)homopiperazine and 1-(1-chloro-8-methoxy-5 isoquinoline-sulfonyl)homopiperazine were added to the medium in the final concentration of 1.5 μM or 15 μM 1 h after plating in comparison to adding water which served as negative control. […] After 2 days in culture the cells were fixed. Photographs and neurite tracing were performed in a blinded manner.
# IRAK1 = biological target: T1, IRAK1 (Homo sapiens, UniProt P51617); assay: KinomeScan competition binding assay; conditions: 10 μM; competition of more than 50% regarded as inhibitory
# T1 construct: purchased Ambit, San Diego, Calif., USA (KinomeScan)
# Description: as §1
# PIM kinases = assay: KinomeScan competition binding assay; conditions: 10 μM; competition of more than 50% regarded as inhibitory
# Description: as §1
# [2] = biological target: T2, recombinant active rho kinase 2 (ROCK) (Homo sapiens, UniProt O75116); assay: ROCK inhibition assay (ROCK assay kit, anti-phospho-MYPT1 detection); type: biochemical; conditions: test compounds 0.1 to 100 μM; compared to Fasudil in corresponding concentration; FIG. 12
# T2 construct: purchased Upstate, Lake Placid, N.Y., USA (enzyme); Cell Biolabs Inc., San Diego (assay kit with substrate)
# Protocol: The inhibitory effect of test compounds on rho kinase 2 (ROCK) was analyzed using recombinant active rho kinase 2 (Upstate, Lake Placid, N.Y., USA) and the a ROCK assay kit (Cell Biolabs Inc., San Diego, Calif., USA) following the manufacture's instruction. Recombinant rho kinase 2 was dissolved in kinase reaction buffer including the kinase substrate in the presence of the test compound. Test compounds were added in a final concentration of 0.1 to 100 μM. Assays without test compound served as control. […] Assays were incubated at 30° C. for 30-60 min and subsequently stopped by adding 50% of the reaction-volume of 0.5 M EDTA, pH 8.0. After washing steps phosphorylated kinase substrate was quantified using a specific anti-phospho-MYPT1 (Thr696) antibody and a HRP-conjugated secondary antibody.
# hippocampal slices = assay: In vitro LTP analysis (theta burst stimulation, fEPSP slope); type: cell-based, Wistar rats
# Description: Long-term potentiation (LTP) is an in vitro model for the assessment of memory function. Therefore, it allows analysis of test compounds, e.g. the compounds of the invention, e.g. 1-(8-methyl-5 isoquinoline-sulfonyl)homopiperazine and 1-(1-chloro-8-methoxy-5 isoquinoline-sulfonyl)homopiperazine, for memory enhancing potential. Experiments were done on hippocampal slices from 3-4 week-old Wistar rats. The rats were sacrificed by decapitation without prior anesthesia. Brains were quickly removed and soaked in ice cold artificial cerebrospinal fluid (ACSF) containing: NaCl (124 mM), KCl (5 mM), Na2HPO4 (1.2 mM), NaHCO3 (26 mM), CaCl2 (2 mM), MgSO4 (2 mM), and glucose (10 mM), that was continuously bubbled with carbogen (95% O2, 5% CO2). Slices were then cut at 400 μm thickness using a vibratome and incubated in ACSF at room temperature for at least 1 h before starting recordings. All compounds used were diluted in ACSF at the concentrations needed and were prepared fresh on the day of recording from 100 mM stock solutions. To assure proper solubility of the compounds, stock solutions were made with DMSO. For recording, slices were transferred to a 4-channel slice chamber (Synchroslice, Lohmann Research Equipment) that allows simultaneous recording of 4 brain slices. Each slice was placed in a separate submerged type slice chamber were it was continuously superfused with temperature controlled (34° C.) ACSF or ACSF at a rate of 2 ml/min. Under visual control by a camera system, a bipolar stimulation electrode (Rhoades) was placed in the Schaffer collaterals and a single biphasic electrical stimulus of a duration of 200 μs and an amplitude of 200 μA was applied at 0.05 Hz. A platinum/tungsten electrode was then lowered into the CA1 dendritic layer under visual control until stable amplitudes of the recorded fEPSP were achieved. After a recording period of at least 10 min, the input-output relationship between stimulus amplitude and fEPSP amplitude was achieved separately for each slice. […] To induce LTP, 10 theta bursts were applied. Each burst consisted of 4 biphasic stimuli of […] and 600 μA amplitude at a 10 ms interstimulus interval. The interburst interval was 200 ms. Each recording cycle started with a 15 min period in which electrical stimuli were applied at 0.05 Hz to assure stability of the fEPSP amplitude. Then, test the compound was washed in for a period of 30 min during which stimulation was continued at 0.05 Hz and fEPSPs were continuously recorded. LTP induction by theta burst stimulation was started 30 min after wash in. Recording was continued after LTP induction for at least 60 min, 30 min after LTP induction, compounds were washed out. All slices recorded simultaneously were treated with the same time schedule. From the recorded data, the amplitudes of the evoked fEPSP were automatically calculated by the recording software (Synchroslice data acquisition and analysis, LRE) as the negative peak of the postsynaptic signal with respect to baseline and plotted online. All recorded signals were digitally stored for later offline analysis, in particular for fEPSP negative slope calculation. From the stored single sweeps, the slope was calculated between 30% and 70% of the maximum fEPSP amplitude. To allow comparison of data obtained from different slices, fEPSP slopes were normalized to the control value (100%).
# Effects induced by applied substances were tested for statistical significance using either the Student's t-test or the Mann-Whitney Rank Sum Test, significance was assumed if p<0.05. Measurements for each experimental condition were repeated six times. Results are given as means from n=5 slices and standard deviation (SD). […] This could be due to the activation of undesired kinases and/or pathways at this concentration. […]
# ROCK2 = biological target: T3, ROCK2 (Homo sapiens, UniProt O75116); assay: KinomeScan competition binding assay; conditions: 10 μM; compared to Fasudil
# T3 construct: purchased Ambit, San Diego, Calif., USA (KinomeScan)
# Description: as §1
# [3] = Huentelman et al. 2009; WO 2008/019395; cited from earlier work
# [4] = system: undifferentiated PC12 cells; conditions: Zhang et al. 2006; cited from earlier work
# T2 sequence (O75116 whole entry): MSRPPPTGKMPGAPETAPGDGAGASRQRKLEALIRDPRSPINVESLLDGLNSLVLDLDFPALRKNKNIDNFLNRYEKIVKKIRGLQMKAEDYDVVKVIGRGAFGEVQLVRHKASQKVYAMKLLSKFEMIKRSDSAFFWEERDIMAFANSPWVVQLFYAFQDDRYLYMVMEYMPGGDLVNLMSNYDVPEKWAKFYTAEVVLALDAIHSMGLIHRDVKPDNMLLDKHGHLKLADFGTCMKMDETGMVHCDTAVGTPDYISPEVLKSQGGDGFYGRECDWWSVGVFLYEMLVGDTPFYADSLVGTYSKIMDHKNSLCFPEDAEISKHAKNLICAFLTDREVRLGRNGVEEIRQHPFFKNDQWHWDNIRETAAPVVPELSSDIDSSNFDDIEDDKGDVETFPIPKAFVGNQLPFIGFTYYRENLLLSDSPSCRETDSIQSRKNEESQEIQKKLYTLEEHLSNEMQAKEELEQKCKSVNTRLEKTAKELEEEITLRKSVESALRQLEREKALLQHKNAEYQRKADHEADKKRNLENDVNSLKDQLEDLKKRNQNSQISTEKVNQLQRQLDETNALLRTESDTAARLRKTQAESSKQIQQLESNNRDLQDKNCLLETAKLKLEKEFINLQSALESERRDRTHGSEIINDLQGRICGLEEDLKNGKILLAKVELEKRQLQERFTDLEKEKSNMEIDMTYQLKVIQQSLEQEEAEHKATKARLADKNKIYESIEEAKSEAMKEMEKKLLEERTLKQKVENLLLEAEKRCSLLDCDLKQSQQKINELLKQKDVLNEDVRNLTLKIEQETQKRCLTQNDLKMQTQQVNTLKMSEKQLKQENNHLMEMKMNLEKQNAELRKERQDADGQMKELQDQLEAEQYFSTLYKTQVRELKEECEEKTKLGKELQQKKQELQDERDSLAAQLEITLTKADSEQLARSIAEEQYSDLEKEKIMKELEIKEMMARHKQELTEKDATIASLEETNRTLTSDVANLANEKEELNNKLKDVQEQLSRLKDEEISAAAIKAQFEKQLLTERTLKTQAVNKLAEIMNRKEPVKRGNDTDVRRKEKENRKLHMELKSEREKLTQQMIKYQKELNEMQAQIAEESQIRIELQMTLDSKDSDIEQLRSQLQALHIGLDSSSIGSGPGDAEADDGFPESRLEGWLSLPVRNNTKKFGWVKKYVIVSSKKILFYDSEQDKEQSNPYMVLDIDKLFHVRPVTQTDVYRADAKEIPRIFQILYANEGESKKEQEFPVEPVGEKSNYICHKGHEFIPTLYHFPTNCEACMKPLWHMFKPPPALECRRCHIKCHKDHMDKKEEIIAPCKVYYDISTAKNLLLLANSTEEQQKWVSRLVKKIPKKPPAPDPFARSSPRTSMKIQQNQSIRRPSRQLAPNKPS
# T3 sequence (O75116 whole entry): as above
# T1 sequence (P51617 whole entry): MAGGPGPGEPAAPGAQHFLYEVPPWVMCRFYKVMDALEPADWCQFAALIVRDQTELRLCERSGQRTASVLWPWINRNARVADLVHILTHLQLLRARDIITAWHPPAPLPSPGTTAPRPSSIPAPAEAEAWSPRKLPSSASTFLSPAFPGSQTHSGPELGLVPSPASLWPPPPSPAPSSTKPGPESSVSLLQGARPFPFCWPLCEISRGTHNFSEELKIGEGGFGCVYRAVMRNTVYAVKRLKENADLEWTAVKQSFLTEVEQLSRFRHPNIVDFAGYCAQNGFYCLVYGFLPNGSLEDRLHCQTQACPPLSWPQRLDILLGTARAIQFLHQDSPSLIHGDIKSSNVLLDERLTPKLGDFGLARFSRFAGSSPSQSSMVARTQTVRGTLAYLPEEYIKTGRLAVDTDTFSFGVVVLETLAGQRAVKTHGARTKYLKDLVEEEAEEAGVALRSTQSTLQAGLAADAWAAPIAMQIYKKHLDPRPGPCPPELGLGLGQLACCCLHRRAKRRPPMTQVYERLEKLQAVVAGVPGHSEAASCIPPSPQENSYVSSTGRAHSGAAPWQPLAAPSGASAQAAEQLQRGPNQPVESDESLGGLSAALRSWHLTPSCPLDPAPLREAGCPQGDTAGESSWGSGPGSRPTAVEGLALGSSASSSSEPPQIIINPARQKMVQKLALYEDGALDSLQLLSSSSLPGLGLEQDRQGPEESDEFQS
SMILES,kinase specificity / kinase interaction spectrum (over 400 kinases),neurite outgrowth promoting activity [1],inhibitory effect for IRAK1 (IRAK1),inhibitory effect for PIM kinases (PIM kinases),ROCK inhibition (rho kinase 2 activity) [2],enhancement of LTP (overall conclusion) (hippocampal slices),effect on LTP (hippocampal slices; 1 μM),effect on LTP (hippocampal slices; 10 μM),effect on LTP (hippocampal slices; 100 μM),"synaptic activity upon removal of the substance (hippocampal slices; 100 μM, after wash out)",affinity to ROCK2 (ROCK2),learning and memory [3],neurite outgrowth [4]
COc1ccc(S(=O)(=O)N2CCCNCC2)c2ccnc(Cl)c12 [1-(1-chloro-8-methoxy-5 isoquinoline-sulfonyl)homopiperazine],much more specific ROCK inhibitor than Fasudil; also recorded: very specific ROCK inhibitor,did not significantly promote neurite outgrowth,mainly inhibitory effect only for PIM kinases and IRAK1,mainly inhibitory effect only for PIM kinases and IRAK1,enhanced ROCK inhibition compared to Fasudil,significant enhancement of LTP,clearly superior LTP stimulating effect compared to fasudil,LTP induction is unaltered but the maintenance seems to be impaired,LTP induction is blocked completely,clear rebound of synaptic activity,,,
Cc1ccc(S(=O)(=O)N2CCCNCC2)c2ccncc12 [1-(8-methyl-5 isoquinoline-sulfonyl)homopiperazine],broader kinase interaction spectrum comparable to that of Fasudil,superior neurite outgrowth promoting activity,,,enhanced ROCK inhibition compared to Fasudil,,blocks LTP,,the ability of LTP induction is re-established,,much stronger affinity to ROCK2 than Fasudil,,
O=S(=O)(c1cccc2cnccc12)N1CCCNCC1 [Fasudil],,,,,,,,,,,,can enhance learning and memory,increase neurite outgrowth
